Assay results from PMC4920072, “Peptide:glycosaminoglycan hybrid hydrogels as an injectable intervention for spinal disc degeneration” (Journal of Materials Chemistry. B, Materials for Biology …, 2016).

Assays:
Assay type in all cases: physicochemical
[1] = Visually observed gelation time / physical state of peptide and peptide:GAG samples; details: for Time to gel: peptide concentration = 20 mg/ml, typical gelation times
Procedure: Therefore the GAGs must be directly interacting with the peptides via physical bonds to enhance their gelation.
c.) 200 P11-12 1-9 days Wavenumbers (cm-1) Wavenumbers (cm-1) […]
Figure S1. […]
Peptide GAG ratio Time to gel ( peptide concentration = 20 mg/ml)
P11-4 1:2 Seconds-minutes
Table S1. Typical gelation times in 20mg/ml samples
(also on this page, place not known: (cm -1 ) (cm -1 ) (cm -1 ) Estimated monomer (µM) Aromatic 0 / µM Apparent critical relative integral 0.125 mM TMSP concentration to concentration Seconds-minutesP11-4 SecondsP11-8 SecondsP11-9 P11-12) […]
Figure S3. From left to right P11-12, P11-12:PEG (Mw 10k), P11-12:PEG (Mw 100k). 130 mM NaCl in D2O, PEG added at same wt% as 1:10
Pep:GAG ratio. All samples = liquid

[2] = Transmission electron microscopy of peptide and peptide:GAG aggregates; details: TEM, uranyl acetate negative stain; for Twist pitch: peptide alone, 130 mM NaCl in D2O
Excerpt: We observe that incorporation of GAGs into peptide hydrogels also modifies their microscopic properties. Transmission electron microscopy images reveal pronounced differences in the fibril morphologies (Fig. 3a and Fig. S2, S3, ESI ^‡). Broadly speaking, the changes in gel structure between peptide-only and peptide:GAG gels are very similar. In peptide-only gels, the fibril widths are of the order of 10 nm. This compares to peptide:GAG gels where the fibrils align and cluster together with bundle diameters of the order of 100 nm. […] Transmission electron microscopy of uranyl acetate stained samples were carried out on a Philips CM10/Jeol JEM1400 electron microscope operating at 80/120 kV. Fourier transform infra-red spectra were acquired with a Thermo Scientific Nicolet 6700 FTIR spectrometer. […] TFA has a FTIR band located at 1673 cm-1 and peptides with greater number of arginine and ornithine residues will contain more TFA and therefore a large TFA peak in the FTIR spectra. Transmission electron microscopy, TEM P11-9 and P11-9:GAG samples were prepared in DPBS (Dubeccos phosphate buffered saline, Sigma Aldrich), solution containing 0.04% NaN3, (Sodium azide, Sigma Aldrich, 99%)to prevent bacterial growth. The samples were vortexed for 20 seconds, and then sonicated for 30 minutes. Solution pH was measured and adjusted to 7.4 ± 0.3. Any adjustment of pH, if necessary, was made with μL volumes of 0.1 to 1 mol dm-3 HCL (Hydrochloric acid, Fisher Scientific, analytical reagent grade, 37% wt diluted with purified water), and/or 0.1 to 1 mol dm-3 NaOH (Sodium hydroxide pellets, Fisher […], analytical grade, dissolved in and diluted with purified water). Solution vials were closed, sealed with PTFE tape, and then warmed to approximately 80 °C to maximise peptide solubility. Following warming GAG powder was added to the peptide solutions and the mixture was vortexed to ensure complete mixing The resulting gels were left to equilibrate for approximately four and a half months. For P11-4, P11-8 and P11-12, samples with and without GAG prepared for FTIR were used, these were left to equillibriate for 4 days prior to TEM grid preparation. The gels were then diluted (20 μl of sample in 60 μl D2O) minutes prior to addition to the TEM grids. Glow discharged carbon film coated copper TEM grids (Agar Scientific) were touched onto the peptide and peptide:gag solutions for one minute. The grid was air-dried and then negatively stained with uranyl acetate solution (2% w/v) for 20 seconds and air-dried. TEM images for P11-4, P11-8 and P11-12, samples with and without GAG were obtained using a Jeol JEM1400 transmission electron microscope operating […] voltage. TEM images of […] with and without GAG were obtained using a Philips CM10 electron microscope operating at 80 kV accelerating voltage. Rheometry Peptide and peptide:GAG samples were prepared in DPBS (Dubeccos phosphate buffered saline, Sigma Aldrich), solution containing 0.04% NaN3 (sodium azide, Sigma Aldrich, 99%). The samples were vortexed for 20 seconds, and then sonicated for 30 minutes. Solution pH was measured and adjusted to 7.4 ± 0.3. Any adjustment of pH, if necessary, was made with μL volumes of 0.1 to 1 mol dm-3 HCL (hydrochloric acid, Fisher Scientific, analytical reagent grade, 37% wt diluted with purified water), and/or 0.1 to 1 mol dm-3 NaOH (Sodium hydroxide pellets, Fisher […], analytical grade, dissolved in and diluted with purified water). Solution vials were closed, sealed with PTFE tape, and then warmed to approximately 80 °C to maximise peptide solubility. Following warming GAG powder was added to the peptide solutions and the mixture was vortexed to ensure complete mixing The resulting gels were left to equilibrate at room temperature (P11-4 20 days, P11-8 1.5 months, P11-9 one month and P11-12 two months). Rheometry measurements used a Malvern Kinexus Pro rheometer with a cone-plate geometry (cone angle: 1O, diameter: 50 mm, gap: 0.033 mm). […]

[3] = 1H NMR of free peptide monomer concentration (apparent critical aggregation concentration c*, equilibration); details: 1H NMR aromatic region integral relative to TMSP, 130 mM NaCl in D2O, pD 7.4, room temperature
Procedure: NMR characterisation of the free peptide monomer concentration that coexists in equilibrium with the peptide fibrils (and therefore the apparent c*) is found to decrease in the presence of GAG (Fig. 2a and Fig. S1a, ESI ^‡).
The thermodynamics are affected by the presence of GAG.
^1H Nuclear Magnetic Resonance spectra were recorded on a Bruker DPX300 300 MHz spectrometer. Transmission electron microscopy of uranyl acetate stained samples were carried out on a Philips CM10/Jeol JEM1400 electron microscope operating at 80/120 kV. Fourier transform infra-red spectra were acquired with a Thermo Scientific Nicolet 6700 FTIR spectrometer. Rheological measurements used a Malvern Kinexus Pro rheometer with a cone-plate geometry. […]
Peptide and peptide:GAG samples were prepared directly in D2O (Deuterium Oxide, Sigma Aldrich 99.9% D) containing 130 mM NaCl (Sodium Chloride, Fisher Scientific, analytical grade) and […] TMSP (deuterated Sodium 3-(trimethylsilyl)propionate-2,2,3,3-d4, Cambridge Isoptope Labortatories, chemical shift 0 ppm) an internal reference standard. […] Solution pD was measured and adjusted to 7.4 ± 0.3 using the relation pD = pH + 0.4.[1] […]
NMR data were acquired at room temperature with a Bruker DPX 300 spectrometer, operating at 300 MHz (5 mm probe, spectral width 5995 Hz). A presaturation program was used to minimize the water peak, and 1024 scans were measured per spectrum. […]

[4] = Control (peptide only, no GAG), visually observed, room temperature
[5] = peptide : GAG ratio 1:2, visually observed, room temperature
[6] = peptide : GAG ratio 1:10, visually observed, room temperature
[7] = peptide alone or peptide:GAG 1:10
[8] = peptide alone or peptide:GAG 1:10, 20 mg/ml, 130 mM NaCl in D2O (P11-9 samples in DPBS)

| Time to gel [1, 4] | Time to gel [1, 5] | Time to gel [1, 6] | Morphology [2, 7] | Fibril width [2, 8] [nm] | Twist pitch ([2]; 20 mg/ml) [nm] | Ribbon width [2, 8] [nm] | Physical state of sample (gel or liquid) ([1]; 130 mM NaCl in D2O, PEG added at same wt% as 1:10 Pep:GAG ratio) | Time to gel ([1]; peptide : GAG ratio 1:50, visually observed, room temperature) | Time to gel ([1]; peptide : GAG ratio 1:100, visually observed, room temperature) | Gelation time ([1]; when higher GAG ratios were used, visually observed, room temperature) | Time for the monomer concentration to equilibrate ([3]; GAG present at peptide : GAG ratio of 1 : 5) | Time for the monomer concentration to equilibrate ([3]; peptide only) | Large loose bundle /fibre width [2, 8] [nm] | Substance |
| --- | --- | --- | --- | --- | --- | --- | --- | --- | --- | --- | --- | --- | --- | --- |
| Minutes -hours | Seconds-minutes | Seconds | Twisted fibrils | 14.6 | 76.6 ± 17.1 | – | – | – | – | – | – | – | – | Ac-QQRFEWEFEQQ-NH2 [P11-4] |
| Minutes | Seconds | Seconds | Ribbons | – | – | 4 ± 1 | – | – | – | – | – | – | – | Ac-SSRFEWEFESS-NH2 [P11-9] |
| days | seconds | Seconds | Twisted fibrils | 13.2 | 135.2 ± 22.1 | 5.06 | – | – | – | – | – | – | – | CH3CO-Q-Q-R-F-O-W-O-F-E-Q-Q-NH2 [P11-8] |
| Minutes | Seconds | Seconds | Twisted fibrils and ribbons | 10.1 | 114.3 ± 10.3 | 5.0 ± 0.8 | liquid | Spontaneous | Spontaneous | instantaneously | less than a week | within two months | 43.7 ± 11.5 | CH3CO-S-S-R-F-O-W-O-F-E-S-S-NH2 [P11-12] |
